The values below are quoted from earlier work in patent US7914804B2, “Slow release pharmaceutical preparation and method of administering same” (Palmaya Pty Ltd, priority 2001, dated 2011).

In the case of `O=C1CC[C@@]2(O)[C@H]3Cc4ccc(O)c5c4[C@@]2(CCN3CC2CC2)[C@H]1O5` [Naltrexone], under “thought to be”, the “effectiveness relative to Naloxone” value is reported as “twice as effective” and the “lasting in the body relative to Naloxone” value is given as 8 times.

Consider `C=CCN1CC[C@]23c4c5ccc(O)c4O[C@H]2C(=O)CC[C@@]3(O)[C@H]1C5` [Naloxone], for which the t1/2 entry (in the body) is reported as “½”.
